{"source": "patent US20240398795A1", "about": "“COMBINATION THERAPIES USING PRMT5 INHIBITORS FOR THE TREATMENT OF CANCER” (MIRATI THERAPEUTICS, INC., priority 2021, published 2024)", "assay_type_in_all_cases": "in vivo, mice", "key": {"[1]": {"tested_on": "KP4 xenograft tumors", "experiment": "KP4 xenograft tumor volume study", "details": "n=5, Docetaxel 15 mg/kg IP Q7D, combination 100 mg PO QD + 15 mg/kg IP Q7D", "description": "(§1) Immunodeficient female nu/nu or BALBC/Nude mice were subcutaneously implanted with 3×10^6 to 1×10^7 human derived cancer cells depending on the cell line xenograft model. Tumors were measured using calipers until they reached approximately 100-150 mm^3. […] Tumor volume was measured twice a week (n=5/treatment group). Average tumor volume and standard error of the mean was calculated and plotted at each study day in GraphPad.\n(§2) This example was carried out according to the study procedure described above. The PRMT5 inhibitor was MRTX1719 administered at 100 mg/kg once a day (QD). MRTX1719 is (2M)-2-(4-(4-(aminomethyl)-1-oxo-1,2-dihydrophthalazin-6-yl)-1-methyl-1H-pyrazol-5-yl)-4-chloro-6-cyclopropoxy-3-fluorobenzonitrile, disclosed as Example 16-8 at p. 307 of the International patent publication No. WO 2021/050915 A1, published 18 Mar. 2021, incorporated by reference in its entirety.\nSubstantially the same procedure of Example 1 was repeated except with mice bearing KP4 xenograft tumors."}, "[2]": {"tested_on": "SW1573 xenograft tumors", "experiment": "SW1573 xenograft tumor volume study", "details": "n=5, MRTX1719 50 mg/kg PO QD, Docetaxel 15 mg/kg IP Q7D, combination 50 mg PO QD + 15 mg/kg IP Q7D", "description": "as §1\nas §2, with “The PRMT5 inhibitor was MRTX1719 administered at 100 mg/kg once a day (QD).” left out\nSubstantially the same procedure as Example 1 was repeated except with mice bearing SW1573 xenograft tumors."}, "[3]": {"tested_on": "LU99 xenograft tumors", "experiment": "LU99 xenograft tumor volume study", "details": "n=5, MRTX1719 50 mg/kg PO QD, Docetaxel 15 mg/kg IP Q7D, combination 50 mg PO QD + 15 mg/kg IP Q7D", "description": "as §1\nas §2, with “The PRMT5 inhibitor was MRTX1719 administered at 100 mg/kg once a day (QD).” left out\nSubstantially the same procedure of Example 1 was repeated except with mice bearing LU99 xenograft tumors."}, "[4]": {"tested_on": "NCI-H2228 xenograft tumors", "experiment": "NCI-H2228 xenograft tumor volume study", "details": "n=5, MRTX1719 100 mg/kg PO QD, Docetaxel 10 mg/kg IP Q7D, combination 100 mg PO QD + 10 mg/kg IP Q7D", "description": "as §1, §2\nSubstantially the same procedure as Example 1 was repeated except with mice bearing NCI-H2228 xenograft tumors."}, "[5]": {"tested_on": "A549 xenograft tumors", "experiment": "A549 xenograft tumor volume study", "details": "n=5, MRTX1719 100 mg/kg PO QD, Docetaxel 15 mg/kg IP Q7D, combination 100 mg PO QD + 15 mg/kg IP Q7D", "description": "as §1, §2\nSubstantially the same procedure as Example 1 was repeated except with mice bearing A549 xenograft tumors."}, "[6]": {"tested_on": "HCC4006 xenograft tumors", "experiment": "HCC4006 xenograft tumor volume study", "details": "n=5, MRTX1719 100 mg/kg PO QD, Docetaxel 10 mg/kg IP Q7D, combination 100 mg PO QD + 10 mg/kg IP Q7D", "description": "as §1, §2\nSubstantially the same procedure as Example 1 was repeated except with mice bearing HCC4006 xenograft tumors."}, "[7]": {"tested_on": "H1650 xenograft tumors", "experiment": "NCI-H1650 xenograft tumor volume study", "details": "n=5, MRTX1719 100 mg/kg PO QD, Docetaxel 10 mg/kg IP Q7D, combination 100 mg/kg PO QD + 10 mg/kg IP Q7D", "description": "as §1, §2"}, "[8]": {"tested_on": "MIAPaCa-2 xenograft tumors", "experiment": "MIAPaCa-2 xenograft tumor volume study", "details": "n=5, MRTX1719 100 mg/kg PO QD, Docetaxel 15 mg/kg IP Q7D, combination 100 mg PO QD + 15 mg/kg IP Q7D", "description": "as §1\nThis example was carried out according to the study procedure described above. The PRMT5 inhibitor was MRTX1719 administered at 100 mg/kg once a day (QD). […] 307 of the International patent publication No. WO 2021/050915 A1, published 18 Mar. 2021, incorporated by reference in its entirety.\nSubstantially the same procedure of Example 1 was repeated except with mice bearing MIAPaCa-2 xenograft tumors."}}, "data": [{"smiles": "CC(=O)O[C@@]12CO[C@@H]1C[C@H](O)[C@@]1(C)C(=O)[C@H](O)C3=C(C)[C@@H](OC(=O)[C@H](O)[C@@H](NC(=O)OC(C)(C)C)c4ccccc4)C[C@@](O)([C@@H](OC(=O)c4ccccc4)[C@H]21)C3(C)C", "note": "[Docetaxel, docetaxel]", "values": [{"measurement": "Tumor Volume, Mean", "setting": "[1]; Day 0, MRTX1719 100 mg/kg PO QD", "result": 144, "unit": "mm^3"}, {"measurement": "Tumor Volume, Mean", "setting": "[1]; Day 5, MRTX1719 100 mg/kg PO QD", "result": 121, "unit": "mm^3"}, {"measurement": "Tumor Volume, Mean", "setting": "[1]; Day 7, MRTX1719 100 mg/kg PO QD", "result": 105, "unit": "mm^3"}, {"measurement": "Tumor Volume, Mean", "setting": "[1]; Day 11, MRTX1719 100 mg/kg PO QD", "result": 90, "unit": "mm^3"}, {"measurement": "Tumor Volume, Mean", "setting": "[1]; Day 14, MRTX1719 100 mg/kg PO QD", "result": 82, "unit": "mm^3"}, {"measurement": "Tumor Volume, Mean", "setting": "[1]; Day 19, MRTX1719 100 mg/kg PO QD", "result": 126, "unit": "mm^3"}, {"measurement": "Tumor Volume, Mean", "setting": "[1]; Day 21, MRTX1719 100 mg/kg PO QD", "result": 272, "unit": "mm^3"}, {"measurement": "Tumor Volume, Mean", "setting": "[1]; Day 25", "result": 482, "unit": "mm^3"}, {"measurement": "Tumor Volume, Mean", "setting": "[1]; Day 28", "result": 592, "unit": "mm^3"}, {"measurement": "Tumor Volume, Mean", "setting": "[1]; Day 32", "result": 785, "unit": "mm^3"}, {"measurement": "Tumor Volume, Mean", "setting": "[1]; Day 35", "result": 895, "unit": "mm^3"}, {"measurement": "Tumor Volume, Mean", "setting": "[2]; Day 0", "result": 141, "unit": "mm^3"}, {"measurement": "Tumor Volume, Mean", "setting": "[2]; Day 3", "result": 148, "unit": "mm^3"}, {"measurement": "Tumor Volume, Mean", "setting": "[2]; Day 8", "result": 191, "unit": "mm^3"}, {"measurement": "Tumor Volume, Mean", "setting": "[2]; Day 10", "result": 231, "unit": "mm^3"}, {"measurement": "Tumor Volume, Mean", "setting": "[2]; Day 14", "result": 281, "unit": "mm^3"}, {"measurement": "Tumor Volume, Mean", "setting": "[2]; Day 17", "result": 302, "unit": "mm^3"}, {"measurement": "Tumor Volume, Mean", "setting": "[2]; Day 21", "result": 352, "unit": "mm^3"}, {"measurement": "Tumor Volume, Mean", "setting": "[3]; Day 0", "result": 153, "unit": "mm^3"}, {"measurement": "Tumor Volume, Mean", "setting": "[3]; Day 5", "result": 184, "unit": "mm^3"}, {"measurement": "Tumor Volume, Mean", "setting": "[3]; Day 8", "result": 299, "unit": "mm^3"}, {"measurement": "Tumor Volume, Mean", "setting": "[3]; Day 12", "result": 459, "unit": "mm^3"}, {"measurement": "Tumor Volume, Mean", "setting": "[3]; Day 15", "result": 757, "unit": "mm^3"}, {"measurement": "Tumor Volume, Mean", "setting": "[3]; Day 20", "result": 1057, "unit": "mm^3"}, {"measurement": "Tumor Volume, Mean", "setting": "[3]; Day 22", "result": 1255, "unit": "mm^3"}, {"measurement": "Tumor Volume, Mean", "setting": "[3]; Day 26", "result": 1722, "unit": "mm^3"}, {"measurement": "Tumor Volume, Mean", "setting": "[4]; Day 0", "result": 121, "unit": "mm^3"}, {"measurement": "Tumor Volume, Mean", "setting": "[4]; Day 3", "result": 100, "unit": "mm^3"}, {"measurement": "Tumor Volume, Mean", "setting": "[4]; Day 6", "result": 73, "unit": "mm^3"}, {"measurement": "Tumor Volume, Mean", "setting": "[4]; Day 9", "result": 76, "unit": "mm^3"}, {"measurement": "Tumor Volume, Mean", "setting": "[4]; Day 13", "result": 68, "unit": "mm^3"}, {"measurement": "Tumor Volume, Mean", "setting": "[4]; Day 16", "result": 42, "unit": "mm^3"}, {"measurement": "Tumor Volume, Mean", "setting": "[4]; Day 20", "result": 15, "unit": "mm^3"}, {"measurement": "Tumor Volume, Mean", "setting": "[4]; Day 23", "result": 10, "unit": "mm^3"}, {"measurement": "Tumor Volume, Mean", "setting": "[4]; Day 27", "result": 12, "unit": "mm^3"}, {"measurement": "Tumor Volume, Mean", "setting": "[5]; Day 1", "result": 118, "unit": "mm^3"}, {"measurement": "Tumor Volume, Mean", "setting": "[5]; Day 5", "result": 128, "unit": "mm^3"}, {"measurement": "Tumor Volume, Mean", "setting": "[5]; Day 8", "result": 156, "unit": "mm^3"}, {"measurement": "Tumor Volume, Mean", "setting": "[5]; Day 12", "result": 160, "unit": "mm^3"}, {"measurement": "Tumor Volume, Mean", "setting": "[5]; Day 15", "result": 169, "unit": "mm^3"}, {"measurement": "Tumor Volume, Mean", "setting": "[5]; Day 19", "result": 167, "unit": "mm^3"}, {"measurement": "Tumor Volume, Mean", "setting": "[5]; Day 22", "result": 163, "unit": "mm^3"}, {"measurement": "Tumor Volume, Mean", "setting": "[5]; Day 26", "result": 162, "unit": "mm^3"}, {"measurement": "Tumor Volume, Mean", "setting": "[5]; Day 29", "result": 189, "unit": "mm^3"}, {"measurement": "Tumor Volume, Mean", "setting": "[5]; Day 34", "result": 239, "unit": "mm^3"}, {"measurement": "Tumor Volume, Mean", "setting": "[6]; Day 0", "result": 126, "unit": "mm^3"}, {"measurement": "Tumor Volume, Mean", "setting": "[6]; Day 2", "result": 151, "unit": "mm^3"}, {"measurement": "Tumor Volume, Mean", "setting": "[6]; Day 5", "result": 139, "unit": "mm^3"}, {"measurement": "Tumor Volume, Mean", "setting": "[6]; Day 9", "result": 140, "unit": "mm^3"}, {"measurement": "Tumor Volume, Mean", "setting": "[6]; Day 12", "result": 150, "unit": "mm^3"}, {"measurement": "Tumor Volume, Mean", "setting": "[6]; Day 16", "result": 143, "unit": "mm^3"}, {"measurement": "Tumor Volume, Mean", "setting": "[6]; Day 20", "result": 137, "unit": "mm^3"}, {"measurement": "Tumor Volume, Mean", "setting": "[7]; Day 0", "result": 147, "unit": "mm^3"}, {"measurement": "Tumor Volume, Mean", "setting": "[7]; Day 3", "result": 291, "unit": "mm^3"}, {"measurement": "Tumor Volume, Mean", "setting": "[7]; Day 7", "result": 425, "unit": "mm^3"}, {"measurement": "Tumor Volume, Mean", "setting": "[7]; Day 10", "result": 660, "unit": "mm^3"}, {"measurement": "Tumor Volume, Mean", "setting": "[7]; Day 14", "result": 710, "unit": "mm^3"}, {"measurement": "Tumor Volume, Mean", "setting": "[7]; Day 17", "result": 770, "unit": "mm^3"}, {"measurement": "Tumor Volume, Mean", "setting": "[7]; Day 20", "result": 826, "unit": "mm^3"}, {"measurement": "Tumor Volume, Mean", "setting": "[8]; Day 1", "result": 133, "unit": "mm^3"}, {"measurement": "Tumor Volume, Mean", "setting": "[8]; Day 5", "result": 187, "unit": "mm^3"}, {"measurement": "Tumor Volume, Mean", "setting": "[8]; Day 13", "result": 268, "unit": "mm^3"}, {"measurement": "Tumor Volume, Mean", "setting": "[8]; Day 16", "result": 315, "unit": "mm^3"}, {"measurement": "Tumor Volume, Mean", "setting": "[8]; Day 19", "result": 375, "unit": "mm^3"}, {"measurement": "Tumor Volume, Mean", "setting": "[8]; Day 22", "result": 415, "unit": "mm^3"}]}]}
